Laboratory results published in patent US20230075368A1, “IDENTIFICATION OF AN EGFR-BIN3 PATHWAY THAT ACTIVELY SUPPRESSES INVASION AND REDUCES TUMOR SIZE IN GLIOBLASTOMA” (The United States Govemment as represented by the …, priority 2020, published 2023).

What was measured:
Format in all cases: cell-based, human
[1] = system: BIN3; assay: BIN3 expression by Western blot / real-time PCR
Experimental: Mayo PDX cells were serum starved overnight. Following treatment for specific time, cells were harvested and lysed. The human glioblastoma tissues were ground in liquid nitrogen and then were lysed. […] TGFα antibody was from R&D system.
Total RNA from cells was extracted by TRIzol Reagent (Ambion). […] The expression of each gene was normalized to GAPDH as a reference. The following primers were used.
Specifically, Western blot analysis of BIN3 in PDXs in response to EGF was performed (FIG. 4A). Cells were serum starved overnight and treated with 50 ng/ml EGF for 48 hours. BIN3 mRNA levels in EGF-treated PDXs were determined by real-time PCR (FIG. 7B). […] Cells were treated with BIN3 or scrambled siRNA for 48 hours, transfected cells were treated with or without 50 ng/ml EGF for 24 hours. Similar experiments were conducted in GBM6 and GBM22 (FIG. 7D and FIG. 7E). Referring to FIG. 7F, knockdown efficiency of BIN3 siRNA was analyzed by Western blotting. […] Cells were transiently transfected with vector expressing BIN3 for 48 hours followed by invasion assay. […] EGR1 mRNA levels in GBM12 and GBM6 after EGF treatment were determined by real-time PCR (RT-PCR) (FIG. 7I). […] A similar experiment was performed in GBM6 (FIG. 7L). […] A similar experiment was performed in GBM6 (FIG. 7N). Knockdown efficiency of EGR-1 siRNA was analyzed by Western blotting (FIG. 7O). The Western blot images are representative of three independent biological replicates. Actin served as loading control. Data are represented as mean±SEM from three independent experiments. * P<0.05, **P<0.01, unpaired two-tailed t-test.

[2] = system: Mayo PDX cells; assay: Matrigel invasion assay
Experimental: Invasion status of cells was tested with Matrigel Boyden chamber assays (Fisher). 1×10^5 cells were plated on BD BioCoat Matrigel invasion chambers. 24 hours after treatment with drugs, invaded cells were stained with the HEMA-3 kit (Fisher). Invaded cells were counted in 4-5 random fields.
An equal number of cells (5×10^4) were seeded on Matrigel coated inserts, and were untreated (control vehicle) or stimulated with 50 ng/ml EGF for 24 hours, cells invading to the other side of the membrane were counted and presented as percentage cell invasion. […] A similar invasion assay was conducted on GBM26 cells (FIG. 2D). […] Cells were transfected with EGFR or scrambled siRNA for 48 hours before the invasion assay. A similar invasion assay was performed on GBM6 (FIG. 2G). […] Cells were transiently transfected with empty or EGFR wildtype (EGFRwt) overexpressing vector, and invasion assay was performed after 48 hours after transfection. […] Cells were treated with or without 50 ng/ml EGF for 48 hours before the assay. The Western blot images are representative of three independent biological replicates. Actin served as loading control. Data are represented as mean±SEM from three independent experiments. *P<0.05, **P<0.01, n.s. not significant, unpaired two-tailed Student's t-test.
FIG. 3C and FIG. 3D show the results of a Matrigel invasion assay of EGFR siRNA knockdown in GBM12 and GBM6 in response to EGF. Cells were treated with EGFR or scrambled siRNA for 48 hours, transfected cells were seeded on Matrigel coated inserts and were treated with or without 50 ng/ml EGF for 24 hours. […] Cells were transiently transfected with EGFRvIII expression or empty vector, invasion assay was performed 48 hours after transfection. […] Western blot images are representative of three independent biological replicates. Actin served as a loading control. Data are represented as mean±SEM from three independent experiments. […], **P<0.01, ***P<0.001, n.s. not significant, unpaired two-tailed t-test.

[3] = system: CDC42; assay: Cdc42 pull down assay (CDC42-GTP); details: 24 hours, GBM12 and GBM6
Experimental: (§1) The amount of GTP-bound RhoA and Cdc42 were measured using RhoA and Cdc42 pull down assay kit (Cell Signaling) according to the protocol provided by the manufacturer. Briefly, cell lysates were incubated with either glutathione S-transferase (GST)-Rhotekin-RBD or GST-PAK-PBD beads 4° C. for 1 hour to pull down GTP-bound RhoA or Cdc42. Beads were washed four times in washing buffer and re-suspended in lysis buffer. RhoA-GTP and Cdc42-GTP were detected by Western blot using RhoA and Cdc42 antibodies.

[4] = system: RhoA; assay: RhoA pull down assay (RhoA-GTP); details: 24 hours, GBM12 and GBM6
Experimental: as §1

Compound: C[C@@H]1CCN(C(=O)CC#N)C[C@@H]1N(C)c1ncnc2[nH]ccc12 [tofacitinib]
- upregulation of BIN3 ([1]; GBM39 and GBM44 (high endogenous EGFR ligand, high BIN3), tofacitinib 1 μM, 48 hours): do not respond
- upregulation of BIN3 ([1]; GBM39 with HBEGF silenced, tofacitinib, 48 hours): could now upregulate BIN3
- BIN3 mRNA level ([1]; tofacitinib 1 μM, 24 hours, PDXs): upregulates BIN3 at the mRNA level
- BIN3 protein level ([1]; tofacitinib 1 μM, 48 hours, multiple PDX lines): strongly upregulated
- BIN3 level ([1]; tofacitinib in cells treated with a saturating concentration of EGF, 48 hours, GBM12 and GBM6): did not induce a further increase
- responsiveness in invasion assay ([2]; GBM39 with HBEGF silenced vs. GBM39 control, tofacitinib 1 μM): more responsive
- cell invasion ([2]; GBM44 with HB-EGF siRNA knockdown, tofacitinib 1 μM): inhibits invasion
- cell invasion ([2]; tofacitinib 1 μM, 24 hours, multiple PDX lines): inhibited invasiveness

Compound: EGF: Recombinant human EGF (AF-100) from Peprotech; EGFR ligand
- BIN3 protein level ([1]; EGF 50 ng/ml, 48 hours, Mayo PDX lines, Western blot): robust increase
- BIN3 mRNA level ([1]; EGF-treated PDXs, real-time PCR): regulated by EGF at the mRNA level
- cell invasion ([2]; EGF 50 ng/ml, 24 hours, multiple Mayo PDX explant cultures expressing EGFRwt or EGFRvIII plus EGFRwt): suppressed invasion
- cell invasion ([2]; EGFR overexpressing PDX cells exposed to EGF): invasion is suppressed
- CDC42 activity ([3]; EGF 50 ng/ml): decreases the activity
- RhoA activity ([4]; EGF 50 ng/ml): decreases the activity

Compound: HGF: the ligand for Met
- BIN3 levels ([1]; HGF 20 ng/ml, 24 hours): does not affect BIN3 levels
- cell invasion ([2]; HGF 20 ng/ml, 24 hours, GBM12 and GBM6): increased invasiveness
- CDC42 activity ([3]; HGF 20 ng/ml): increase of CDC42 activity was not detected
- RhoA activity ([4]; HGF): increase in RhoA activity
